Measured values as given in the CheMixHub viscosity set.
± gives the uncertainty stated by the source.

Assay: xn = mol fraction of the nth substance listed

CCN(CC)c1ccccc1 + CCCCCCO
viscosity [mPa·s], 100 kPa
Details	x1 = 0.1057	x1 = 0.1952	x1 = 0.3004	x1 = 0.4021	x1 = 0.5011	x1 = 0.6117	x1 = 0.7135	x1 = 0.8163	x1 = 0.9045
303.15 K	3.391 ± 0.096	3.041 ± 0.086	2.695 ± 0.076	2.423 ± 0.068	2.207 ± 0.062	2.014 ± 0.056	1.879 ± 0.052	1.78 ± 0.049	1.725 ± 0.047
308.15 K	2.85 ± 0.081	2.524 ± 0.071	2.226 ± 0.063	1.997 ± 0.056	1.814 ± 0.051	1.667 ± 0.046	1.577 ± 0.044	1.525 ± 0.042	1.501 ± 0.041
313.15 K	2.403 ± 0.068	2.096 ± 0.059	1.835 ± 0.052	1.652 ± 0.046	1.518 ± 0.042	1.405 ± 0.039	1.332 ± 0.037	1.297 ± 0.036	1.313 ± 0.036
318.15 K	2.105 ± 0.059	1.801 ± 0.05	1.569 ± 0.044	1.421 ± 0.04	1.314 ± 0.036	1.218 ± 0.034	1.151 ± 0.032	1.119 ± 0.031	1.148 ± 0.031

CCCCC(CC)COC(C)=O (configuration not stated) + CCCCCO
viscosity [mPa·s], 101.33 kPa
Details	x1 = 0.1041	x1 = 0.2073	x1 = 0.3002	x1 = 0.4211	x1 = 0.4987	x1 = 0.6	x1 = 0.7008	x1 = 0.8092	x1 = 0.9033
293.15 K	3.692 ± 0.38	3.321 ± 0.35	3.019 ± 0.32	2.666 ± 0.29	2.462 ± 0.28	2.219 ± 0.26	2 ± 0.24	1.79 ± 0.22	1.625 ± 0.21
303.15 K	2.68 ± 0.3	2.451 ± 0.28	2.262 ± 0.26	2.037 ± 0.24	1.905 ± 0.23	1.745 ± 0.22	1.599 ± 0.21	1.456 ± 0.2	1.342 ± 0.19
313.15 K	2.119 ± 0.25	1.955 ± 0.24	1.818 ± 0.23	1.653 ± 0.21	1.556 ± 0.2	1.437 ± 0.2	1.328 ± 0.19	1.22 ± 0.18	1.134 ± 0.17
323.15 K	1.255 ± 0.18	1.209 ± 0.18	1.169 ± 0.17	1.119 ± 0.17	1.087 ± 0.17	1.048 ± 0.16	1.01 ± 0.16	0.971 ± 0.16	0.938 ± 0.15
